These results are taken from patent US20220031680A1, “Donecopride As Neuroprotective Agent In the Treatment of Neurodegenerative Diseases” (priority 2018, published 2022).

The test concerns 5×FAD mice. Description: Novel object recognition test in 5×FAD mice. In kind it is in vivo, mouse. Particulars: 1 mg/kg twice a week for 3 months; 24 h inter-session interval. How it is done:
Animal experiments were carried out in accordance with the Directive by the Council of the European Communities of Nov. 24, 1986 (86/609/EEC). All efforts were made to minimize animal suffering and to reduce the number of mice used. The generation of 5×FAD mice was described in Oakley et al. (2006) J. Neurosci. 26:10129-10140. These transgenic mice overexpress both human APP (695) harboring the Swedish (K670N, M671L), Florida (1716V) and London (V7171) familial AD (FAD) mutations and human Presenilin 1 (PS1) harboring the two FAD mutations M146L and L286V. Expression of both transgenes is regulated by neuronal-specific elements of the mouse Thy1 promoter. The 5×FAD strain (B6/SJL genetic background) was maintained by crossing hemizygous transgenic mice with B6/SJL F1 breeders. The 5×FAD strain (C57BL/6J genetic background) was maintained by crossing hemizygous transgenic mice with C57BL/6J F1 breeders. All animals were genotyped by PCR using tail genomic DNA. Transgenic and WT mice were bred in our animal facility, had access to food and water ad libitum and were housed under a 12 h light-dark cycle at 22-24° C. Female 5×FAD mice were used in this study. For each experiment, the age of mice is indicated in months (with a two-week range).
Compounds were resuspended in DMSO (37.5 μg/μl, stored at −20° C.) and freshly diluted 1:250 in 0.9% NaCl prior administration. Vehicle solution (0.9% NaCl, 0.4% DMSO) was used as control.
5×FAD mice received chronic treatments with drugs or vehicle according to 2 different protocols. In each experiment, drugs or vehicle solution were administered i.p. twice a week (1 mg/kg). […]
The cognitive performance of mice was tested using the novel object recognition (NOR) test (Bevins and Besheer (2006) Nat. Protoc. 1:1306-1311). […] The whole experiment was video-recorded and object exploration [time spent by the mouse nose in contact with the object or by sniffing it at a distance s 1 cm] was blindly measured. […] A discrimination index was also calculated ([novel−familiar]/[familiar+novel]). […]

As to `COc1cc(N)c(F)cc1C(=O)CCC1CCN(CC2CCCCC2)CC1` [Flucopride], the “recognition memory, exploration of novel vs familiar object (NOR)” value was “prevent memory alteration”.
The value for `COc1cc(N)c(Cl)cc1C(=O)CCC1CCN(CC2CCCCC2)CC1` [Donecopride] was “prevent memory alteration”.
